Data taken from patent US5744453A, “Polyamine conjugates for treatment of infection” (priority 1996, dated 1998).
Converted amounts (≈) assume the structure as drawn. Where a name gives a salt, the structure may show the parent alone. Read-outs that look alike come from different tables or passages of the source.

Experiments:
Type in all cases: cell-based
[1] = system: Pseudomonas aeruginosa 27853; test: Determination of MIC against bacteria (Table 1), P. aeruginosa 27853; settings: read-out: minimum inhibitory concentration (MIC), P. aeruginosa 27853
Protocol: (§1) Antibiotic indicator strains Escherichia coli strain 25922, Enterococcus faecalis 29212, Pseudomonas aeruginosa 27853, and Staphylococcus aureus 29213 are obtained from the American Type Tissue Culture Collection (ATCC) in Rockville, Md. The cystic fibrosis isolate, Pseudomonas aeruginosa 39324, is also obtained from ATCC. Bacteria are routinely cultivated in cation-supplemented Mueller-Hinton broth (CAMHB) or agar at 37° C.
(§2) The minimum inhibitory concentration (MIC) of glycosylated and non-glycosylated steroidal polyamines for antibiotic indicator strains is determined by dissolving the test compounds in deionized water to a final concentration of 1 mg per mL. […] These solutions are sterilized by filtration through 0.22 micron syringe filters.
(§3) Stock solutions of individual compounds are serially diluted (two-fold) in sterile CAMHB in 96-well tissue culture dishes (Falcon) and inoculated with antibiotic indicator strains that are prepared as described below.
(§4) Antibiotic indicator strains are grown in 5 mL of CAMHB for 3-4 h at 37° C. with shaking (200 rpm) on a New Brunswick rotary shaker. Bacteria are adjusted to a turbidity that matched a 0.5 McFarland standard (ca. 10^8 CFU per mL) in sterile 0.85% saline. These bacterial suspensions are diluted 1:20 in sterile 0.85% saline and 10 μL (ca. […]) of each suspension is used to inoculate individual wells of a 96 well plate that contained different concentrations of the test compounds. Following inoculation, the plates are sealed with plastic tape, incubated for 24 h at 37° C. and visually inspected for bacterial growth. CAMHB inoculated with each of the antibiotic test strains and uninoculated CAMBH plus each of the test compounds served as positive and negative controls.

[2] = system: Staphylococcus aureus 29213; test: Determination of MIC against bacteria (Table 1), S. aureus 29213; settings: read-out: minimum inhibitory concentration (MIC), S. aureus 29213
Protocol: as §1, §2, §3, §4

[3] = system: Enterococcus faecalis 29212; test: Determination of MIC against bacteria (Table 1), E. faecalis 29212; settings: read-out: minimum inhibitory concentration (MIC), E. faecalis 29212
Protocol: as §1, §2, §3, §4

[4] = system: Pseudomonas aeruginosa 39324; test: Determination of MIC against bacteria (Table 1), P. aeruginosa 39324 (cystic fibrosis isolate); settings: read-out: minimum inhibitory concentration (MIC), P. aeruginosa 39324
Protocol: as §1, §2, §3, §4

[5] = system: Escherichia coli strain 25922; test: Determination of MIC against bacteria (Table 1), E. coli 25922; settings: read-out: minimum inhibitory concentration (MIC), E. coli 25922
Protocol: as §1, §2, §3, §4

[6] = Pseudomonas aeruginosa, 27853, 24 h
[7] = Staphylococcus aureus, 29213, 24 h
[8] = Enterococcus faecalis, 29212, 24 h
[9] = Pseudomonas aeruginosa, 39324, 24 h
[10] = Pseudomonas aeruginosa, 27853, CAMHB, 24 h at 37° C., tested from 1.56 to 200 μg per mL
[11] = Staphylococcus aureus, 29213, CAMHB, 24 h at 37° C., tested from 1.56 to 200 μg per mL
[12] = Enterococcus faecalis, 29212, CAMHB, 24 h at 37° C., tested from 1.56 to 200 μg per mL
[13] = Pseudomonas aeruginosa, 39324, CAMHB, 24 h at 37° C., tested from 1.56 to 200 μg per mL
[14] = Escherichia coli, 25922, CAMHB, 24 h at 37° C., tested from 1.56 to 200 μg per mL

SMILES | MIC [1, 6] | MIC [2, 7] | MIC [3, 8] | MIC [4, 9] | MIC ([5]; Escherichia coli, 25922, 24 h) | MIC [1, 10] | MIC [2, 11] | MIC [3, 12] | MIC [4, 13] | MIC [5, 14]
C[C@H](CCC(=O)NCCCNCCCCNCCCN)[C@H]1CC[C@H]2[C@@H]3CC[C@@H]4C[C@H](O)CC[C@]4(C)[C@H]3C[C@H](O)[C@]12C [Compound A, 3α,12α-dihydroxy-7-deoxy-5β-cholan-24-oic acid, N-(4,9-diaza-12-aminododecyl)amide] | 3.12 µg/mL (≈ 5.41 µM) | 6.25 µg/mL (≈ 10.8 µM) | 12.5 µg/mL (≈ 21.7 µM) | 25 µg/mL (≈ 43.3 µM) | 12.5 µg/mL (≈ 21.7 µM) | – | – | – | – | –
C[C@H](CCC(=O)NCCCNCCCCNCCCN)[C@H]1CC[C@H]2[C@@H]3[C@H](O)C[C@@H]4C[C@H](O)CC[C@]4(C)[C@H]3C[C@H](O)[C@]12C [Compound B, 3α,7α,12α-trihydroxy-5β-cholan-24-oic acid, N-(4,9-diaza-12-aminododecyl)amide] | 100 to 200 µg/mL (≈ 169 to 337 µM) | 50 µg/mL (≈ 84.3 µM) | 200 µg/mL (≈ 337 µM) | 100 µg/mL (≈ 169 µM) | 200 µg/mL (≈ 337 µM) | – | – | – | – | –
C[C@H](CCC(=O)NCCCNCCCCNCCCN)[C@H]1CC[C@H]2[C@@H]3[C@H](O[C@H]4O[C@H](CO)[C@@H](O)[C@H](O)[C@H]4O)C[C@@H]4C[C@H](O)CC[C@]4(C)[C@H]3C[C@H](O[C@H]3O[C@H](CO)[C@@H](O)[C@H](O)[C@H]3O)[C@]12C [Compound C, 3α-hydroxy-7α,12α-di(1'α-glucosyl)-5β-cholan-24-oic acid, N-(4,9-diaza-12-aminododecyl)amide] | 200 µg/mL (≈ 218 µM) | 200 µg/mL (≈ 218 µM) | > 200 µg/mL | – | 200 µg/mL (≈ 218 µM) | – | – | – | – | –
C[C@H](CCC(=O)NCCCNCCCCNCCCN)[C@H]1CC[C@H]2[C@@H]3CC[C@@H]4C[C@H](O)CC[C@]4(C)[C@H]3C[C@H](O[C@H]3O[C@H](CO)[C@@H](O)[C@H](O)[C@H]3O)[C@]12C [Compound D, 3α-hydroxy-7-deoxy-12α-(1'α-glucosyl)-5β-cholan-24-oic acid, N-(4,9-diaza-12-aminododecyl)amide] | 100 to 200 µg/mL (≈ 135 to 271 µM) | 50 to 100 µg/mL (≈ 67.7 to 135 µM) | 200 µg/mL (≈ 271 µM) | – | 100 µg/mL (≈ 135 µM) | – | – | – | – | –
C[C@H](CCC(=O)NCCCNCCCCNCCCN)[C@H]1CC[C@H]2[C@@H]3[C@H](O[C@H]4O[C@H](CO)[C@@H](O)[C@H](O)[C@H]4O)C[C@@H]4C[C@H](O)CC[C@]4(C)[C@H]3CC[C@]12C [Compound E, 3α-hydroxy-12-deoxy-7α-(1'α-glucosyl)-5β-cholan-24-oic acid, N-(4,9-diaza-12-aminododecyl)amide] | 12.5 µg/mL (≈ 16.9 µM) | 25 µg/mL (≈ 33.8 µM) | 25 µg/mL (≈ 33.8 µM) | 12.5 µg/mL (≈ 16.9 µM) | 12.5 µg/mL (≈ 16.9 µM) | – | – | – | – | –
C[C@H](CCC(=O)NCCNCCNCCNCCN)[C@H]1CC[C@H]2[C@@H]3CC[C@@H]4C[C@H](O)CC[C@]4(C)[C@H]3C[C@H](O)[C@]12C [Compound F, 3α,12α-dihydroxy-7-deoxy-5β-cholan-24-oic acid, N-(3,6,9-triaza-11-aminoundecyl)amide] | – | – | – | – | – | 100 µg/mL (≈ 177 µM) | 25 µg/mL (≈ 44.3 µM) | 100 µg/mL (≈ 177 µM) | 100 µg/mL (≈ 177 µM) | 100 µg/mL (≈ 177 µM)
C[C@H](CCC(=O)NCCNCCNCCNCCNCCN)[C@H]1CC[C@H]2[C@@H]3CC[C@@H]4C[C@H](O)CC[C@]4(C)[C@H]3C[C@H](O)[C@]12C [Compound G, 3α,12α-dihydroxy-7-deoxy-5β-cholan-24-oic acid, N-(3,6,9,12-tetraaza-14-aminotetradecyl)amide] | – | – | – | – | – | 50 µg/mL (≈ 82.4 µM) | 25 µg/mL (≈ 41.2 µM) | 100 µg/mL (≈ 165 µM) | 50 to 100 µg/mL (≈ 82.4 to 165 µM) | 100 µg/mL (≈ 165 µM)
C[C@H](CCC(=O)NCCNCCNCCNCCN)[C@H]1CC[C@H]2[C@@H]3[C@H](O)C[C@@H]4C[C@H](O)CC[C@]4(C)[C@H]3CC[C@]12C [Compound I, 3α,7α-dihydroxy-12-deoxy-5β-cholan-24-oic acid, N-(3,6,9-triaza-11-aminoundecyl)amide] | – | – | – | – | – | 50 µg/mL (≈ 88.7 µM) | 12.5 µg/mL (≈ 22.2 µM) | 25 µg/mL (≈ 44.3 µM) | 50 µg/mL (≈ 88.7 µM) | 25 µg/mL (≈ 44.3 µM)
C[C@H](CCC(=O)NCCNCCNCCNCCN)[C@H]1CC[C@H]2[C@@H]3[C@H](O)C[C@@H]4C[C@H](O)CC[C@]4(C)[C@H]3C[C@H](O)[C@]12C [Compound J, 3α,7α,12α-trihydroxy-5β-cholan-24-oic acid, N-(3,6,9-triaza-11-aminoundecyl)amide] | – | – | – | – | – | 75 µg/mL (≈ 129 µM) | 37.5 µg/mL (≈ 64.7 µM) | 18.7 µg/mL (≈ 32.2 µM) | 37.5 µg/mL (≈ 64.7 µM) | 75 µg/mL (≈ 129 µM)
C[C@H](CCC(=O)NCCNCCNCCNCCNCCN)[C@H]1CC[C@H]2[C@@H]3[C@H](O)C[C@@H]4C[C@H](O)CC[C@]4(C)[C@H]3C[C@H](O)[C@]12C [Compound K, 3α,7α,12α-trihydroxy-12-deoxy-5β-cholan-24-oic acid, N-(3,6,9,12-tetraaza-14-aminotetradecyl)amide] | – | – | – | – | – | 75 µg/mL (≈ 120 µM) | 37.5 µg/mL (≈ 60.2 µM) | 15.7 µg/mL (≈ 25.2 µM) | 75 µg/mL (≈ 120 µM) | 75 µg/mL (≈ 120 µM)
C[C@H](CCC(=O)NCCNCCNCCNCCNCCN)[C@H]1CC[C@H]2[C@@H]3[C@H](O[C@H]4O[C@H](CO)[C@@H](O)[C@H](O)[C@H]4O)C[C@@H]4C[C@H](O)CC[C@]4(C)[C@H]3C[C@H](O[C@H]3O[C@H](CO)[C@@H](O)[C@H](O)[C@H]3O)[C@]12C [Compound L, 3α-hydroxy-7α,12α-di(1'α-glucosyl)-5β-cholan-24-oic acid, N-(3,6,9,12-tetraaza-14-aminotetradecyl)amide] | – | – | – | – | – | > 200 µg/mL | > 200 µg/mL | > 200 µg/mL | > 150 µg/mL | > 200 µg/mL
C[C@H](CCC(=O)NCCNCCNCCNCCN)[C@H]1CC[C@H]2[C@@H]3[C@H](O[C@H]4O[C@H](CO)[C@@H](O)[C@H](O)[C@H]4O)C[C@@H]4C[C@H](O)CC[C@]4(C)[C@H]3C[C@H](O[C@H]3O[C@H](CO)[C@@H](O)[C@H](O)[C@H]3O)[C@]12C [Compound M, 3α-hydroxy-7α,12α-di(1'α-glucosyl)-5β-cholan-24-oic acid, N-(3,6,9-triaza-11-aminoundecyl)amide] | – | – | – | – | – | > 200 µg/mL | > 200 µg/mL | > 200 µg/mL | > 150 µg/mL | > 200 µg/mL
C[C@H](CCC(=O)NCCNCCNCCNCCNCCN)[C@H]1CC[C@H]2[C@@H]3CC[C@@H]4C[C@H](O)CC[C@]4(C)[C@H]3CC[C@]12C [Compound N, 3α-hydroxy-7,12-dideoxy-5β-cholan-24-oic acid (or lithocholic acid), N-(3,6,9,12-tetraaza-14-aminotetradecyl)amide] | – | – | – | – | – | 200 µg/mL (≈ 338 µM) | 50 µg/mL (≈ 84.6 µM) | 200 µg/mL (≈ 338 µM) | 200 µg/mL (≈ 338 µM) | > 200 µg/mL
C[C@H](CCC(=O)O)[C@H]1CC[C@H]2[C@@H]3[C@H](O)C[C@@H]4C[C@H](O)CC[C@]4(C)[C@H]3C[C@H](O)[C@]12C [cholic acid sodium salt, reference compound] | > 200 µg/mL | > 200 µg/mL | > 200 µg/mL | > 200 µg/mL | > 200 µg/mL | – | – | – | – | –
C[C@H](CCC(=O)O)[C@H]1CC[C@H]2[C@@H]3CC[C@@H]4C[C@H](O)CC[C@]4(C)[C@H]3C[C@H](O)[C@]12C [deoxycholic acid sodium salt, reference compound] | > 200 µg/mL | > 200 µg/mL | > 200 µg/mL | > 200 µg/mL | – | – | – | – | – | > 200 µg/mL
NCCCNCCCCNCCCN [spermine, N-[N-(3-aminopropyl)-4-aminobutyl]-1,3-diaminopropane, reference compound] | – | – | – | – | – | > 200 µg/mL | > 200 µg/mL | > 200 µg/mL | > 150 µg/mL | > 200 µg/mL
NCCNCCNCCNCCN [tetraethylenepentamine, reference compound] | – | – | – | – | – | > 200 µg/mL | > 200 µg/mL | > 200 µg/mL | > 150 µg/mL | > 200 µg/mL
